According to patent EP3866610B1, “CHOCOLATE MATRIX COMPRISING CURCUMIN AND RESVERATROL” (priority 2018, dated 2020):
Values after ≈ are worked out from the molar mass of the structure shown. Read-outs that look alike come from different tables or passages of the source.

Key:
[1] = format: physicochemical
Description: (§1) The SSF was prepared following the instructions included in the article published by Minekus et al. in 2014 in the journal Food & Function (Minekus M, Alminger M, Alvito P, et al. A standardized static in vitro digestion method suitable for food - an international consensus. Food & Funct. 2014. 5:1113-1124). In detail, the SSF was prepared by mixing the following saline solutions: • KCI at the concentration of 15.1 mmol/l, • KH2PO4 at the concentration of 3.7 mmol/l, • NaHCO3 at the concentration of 13.6 mmol/l, • MgCl2(H2O)6 at the concentration of 0.15 mmol/l, and • (NH4)2CO3 at the concentration of 0.06 mmol/l. […]
(§2) Each sample as illustrated below was analysed in triplicate and the concentration of curcumin and resveratrol was calculated on the basis of two calibration curves previously constructed using the curcumin and resveratrol supplied as reference substance and dissolved in 96% ethanol. For processing the calibration curves, the curcumin and resveratrol solutions (prepared by dissolving an exactly weighed quantity of substance in 96% ethanol) were prepared and subjected to analysis in a concentration range, from 0.5 to 200 µg/ml . […]

HaCat cells = format: in vitro ADME, Human; conditions: HaCat cells incubated 120 minutes at 37°C, mean of technical triplicates
Description: (§3) The chromatography analyses were performed using a HPLC-DAD Agilent 1100 system (Agilent, Waldbronn, Germany), comprising a quaternary pump, self-sampler with thermostat equipped with a 100 µl injection loop, column thermostat, DAD Agilent 1100 detector (Agilent, Waldbronn, Germany). For the system control and data analysis the Chemstation software was used. The separation of the compounds was obtained with a Gemini C18 110A analytical column (150 mm × 2 mm; particle diameter 5 µm), connected to a suitable pre-column, both purchased from Phenomenex, Torrance, CA, USA. […]
as §2
The cells were detached mechanically using a scraper in 2 ml of PBS and transferred into a 15 ml Falcon test tube for being centrifuged at 1500 rpm for 5 minutes. […] The results obtained, reported in Table 4, were expressed as a mean of the technical triplicates. […]

physchem [2] = format: physicochemical; conditions: dmem medium, mean of technical triplicates, read-out: Concentration in DMEM medium
Description: as §3, §2
Subsequently, the cell pellet was re-suspended in 24 ml of DMEM medium and the sample was centrifuged at 6000 rpm for 10 minutes to remove the insoluble part. […] The quantities of the compounds added to the medium and were selected on the basis of the first experimental phase. […]

physchem [3] = format: physicochemical; conditions: maltitol 1.35 g, curcumin 50 mg, resveratrol 50 mg, extraction with 6 ml SSF at room temperature
Description: as §1, §2

Structure (SMILES)	solubility in SSF [1]	Concentration in cell pellet (absorption by the cells) (HaCat cells; no matrix, pellet re-suspended in 500 µl 96° ethanol) [ng/mL]	Concentration in cell pellet (absorption by the cells) (HaCat cells; with chocolate matrix, maltitol and ethanol) [ng/mL]	solubility (physchem [2]; no matrix, 167 mg curcumin and 167 mg resveratrol in 20 ml DMEM, filtered) [µg/mL]	solubility (physchem [2]; with chocolate matrix: 200 mg curcumin, 200 mg resveratrol, 5.4 g maltitol, 12 g dark chocolate, 799.2 µl ethanol, hexane-defatted, re-suspended in 24 ml DMEM) [µg/mL]	Concentration (physchem [3]; SAMPLE 2: 2.8528 g dark chocolate, ethanol 99.9 µL) [ng/mL]	solubility (physchem [3]; simulated salivary fluid, SAMPLE 1: 2.8528 g dark chocolate, ethanol 199.8 µL, read-out: Concentration) [µg/mL]
COc1cc(/C=C/C(=O)CC(=O)/C=C/c2ccc(O)c(OC)c2)ccc1O [Curcumin]	substantial insolubility						
Oc1ccc(/C=C/c2cc(O)cc(O)c2)cc1 [Resveratrol, 3,5,4'-trihydroxy-trans-stilbene]		0	3660	31.8 (≈ 139 µM)	125 (≈ 547 µM)	82470	156 (≈ 683 µM)
